Assay results taken from patent US20090170867A1, “TRPV1 ANTAGONISTS INCLUDING SULFONAMIDE SUBSTITUENT AND USES THEREOF” (Shionogi & Co., Ltd., priority 2007, published 2009).

Key:
[1] = molecular target: T1, human TRPV1 (Homo sapiens, UniProt Q8NER1); assay: pH-based assay, Protocol 2 (TRPV1/CHO cells, Fura-2 AM, FDSS-3000, pH 5.0-5.1); format: cell-based; details: H2SO4 agonist, mean ± SEM, number of trials in parentheses, read-out: TRPV1 IC50 Potency, Human pH CHO (hpH-CHO)
T1 construct: using primers designed surrounding the complete hTRPV1 open reading frame; expressed in transfected cells; host or cells: CHO-K1 cells stably transfected with pcDNA3.1(-)-hVR1 plasmid
T1 sequence (Q8NER1 whole entry): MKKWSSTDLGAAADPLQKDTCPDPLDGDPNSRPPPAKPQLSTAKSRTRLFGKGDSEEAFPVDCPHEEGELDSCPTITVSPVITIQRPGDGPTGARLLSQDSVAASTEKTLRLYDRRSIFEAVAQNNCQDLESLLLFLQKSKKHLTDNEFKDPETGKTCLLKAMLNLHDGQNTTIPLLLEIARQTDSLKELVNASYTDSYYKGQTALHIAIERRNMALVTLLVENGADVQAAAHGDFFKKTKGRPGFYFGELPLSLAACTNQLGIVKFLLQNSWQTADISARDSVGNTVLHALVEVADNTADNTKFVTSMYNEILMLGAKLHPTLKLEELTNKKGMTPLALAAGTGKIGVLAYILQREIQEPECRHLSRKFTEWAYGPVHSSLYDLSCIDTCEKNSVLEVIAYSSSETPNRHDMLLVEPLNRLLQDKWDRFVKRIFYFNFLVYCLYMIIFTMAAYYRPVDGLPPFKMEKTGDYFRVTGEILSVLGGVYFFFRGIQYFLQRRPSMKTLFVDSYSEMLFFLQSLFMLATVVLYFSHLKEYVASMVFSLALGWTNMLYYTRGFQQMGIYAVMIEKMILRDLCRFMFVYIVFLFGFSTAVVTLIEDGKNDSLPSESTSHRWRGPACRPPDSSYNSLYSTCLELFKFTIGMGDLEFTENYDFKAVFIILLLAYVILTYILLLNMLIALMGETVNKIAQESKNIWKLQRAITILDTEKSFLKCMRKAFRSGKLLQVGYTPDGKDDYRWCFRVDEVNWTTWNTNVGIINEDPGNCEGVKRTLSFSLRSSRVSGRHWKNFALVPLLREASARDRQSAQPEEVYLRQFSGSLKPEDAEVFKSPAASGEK
Source text: For Protocol 2, a Chinese Hamster Ovary cell line (CHO) that has been engineered to constitutively express human recombinant TRPV1 was used (TRPV1/CHO cells). The TRPV1/CHO cell line was generated as described below.
The resulting PCR products were purified from agarose gels using Gel Band Purification Kit (GE Healthcare Bioscience) and were subcloned into pCR-Blunt vector (Invitrogen). The cloned cDNA was fully sequenced using a fluorescent dye-terminator reagent (BigDye Terminator ver3.1 Cycle Sequencing Kit, Applied Biosystems) and ABI Prism 3100 genetic analyzer (Applied Biosystems). The pCR-Blunt vector containing the hTRPV1 cDNA was subjected to restriction digestion with EcoRI. The restriction fragment was subcloned into expression vector pcDNA3.1 (−) (Invitrogen) and named pcDNA3.1 (−)-hVR1 plasmid. The sequence of the cDNA encoding TRPV1 is available at GenBank accession number AJ277028.
CHO-K1 cells were maintained in growth medium consisting of α-MEM, 10% FBS (Hyclone), and 100 IU/mL of penicillin-100 μg/mL of streptomycin mixed solution (Nacalai Tesque, Japan) at 37° C. in an environment of humidified 95% air and 5% CO2. The cells were transfected with the pcDNA3.1 (−)-hVR1 plasmid using FuGENE6 (Roche) according to the manufacturer's protocol. 24 hr after transfection, neomycin-resistant cells were selected using 1 mg/mL G418 (Nacalai Tesque). After 2 weeks, individual colonies were picked, expanded, and screened for the expression of hTRPV1 in the capsaicin-induced Ca^2+ influx assay (see below) with a FLIPR (Molecular Devices). A clone with the largest Ca^2+ response to capsaicin was selected and re-cloned by the same procedure. The cells expressing hTRPV1 were cultured in the growth medium supplemented with 1 mg/mL G418.
TRPV1/CHO cells were seeded in the 96-well clear-bottom black-wall plate (Nunc) at densities of 1-2×10^4 cells/well and grown in 100 μL of culture medium (alpha-MEM supplemented with 10% FBS, 20 mM HEPES, 1 mg/mL geneticin and 1% antibiotic-antimycotic mixed stock solution) for 1-2 days before the experiment.
Different agonist solutions with sulfuric acid concentrations of from 15 mM to 18 mM (see FIG. 1) were prepared by diluting 1M sulfuric acid with measuring buffer. The different sulfuric acid concentrations in the agonist solutions were selected such that a 1:4 dilution would result in a final sulfuric acid concentration of between 3.0 mM to 3.6 mM, respectively, as indicated in FIG. 1.
The cells were stimulated using 3.0 mM (well number B1-6), 3.1 mM (C1-6), 3.2 mM (D1-6), 3.3 mM (E1-6), 3.4 mM (F1-6), 3.5 mM (G1-6), or 3.6 mM (H1-6) H2SO4 or pH 7.2 measuring buffer without H2SO4 (A1-6) (FIG. 2).
(1) Culture medium was removed using an 8-channel-pipette (Rainin, USA) from the 96-well plate and the wells were refilled with 100 μL of loading buffer (20 mM HEPES, 115 mM NaCl, 5.4 mM KCl, 0.8 mM MgCl2, 1.8 mM CaCl2, 13.8 mM D-glucose, 2.5 mM probenecid, pH 7.4) containing 5 μM Fura-2 AM (Dojin, Japan).
(2) The 96-well plate was incubated at 37° C. for 45 min.
(3) The loading buffer was removed from each well. The cells were subsequently washed twice with 150 μL of measuring buffer (20 mM HEPES, 115 mM NaCl, 5.4 mM KCl, 0.8 mM MgCl2, 5.0 mM CaCl2, 13.8 mM D-glucose, 0.1% BSA, pH 7.4) (no probenecid). The wells were then refilled with 80 μL of measuring buffer.
(4) After an incubation at 4° C. for 15 min, the 96-well plate was transferred to FDSS-3000 (Hamamatsu Photonics, Japan).
(5) The Fura-2 fluorescent intensity was monitored at a wavelength of 340 nm and at 380 nm, respectively, at a rate of 0.5 Hz for a total of 240 seconds.

[2] = molecular target: T1, human TRPV1; assay: Capsaicin-based assay, Protocol 2 (TRPV1/CHO cells, Fluo-4, FLIPR); format: cell-based; details: capsaicin 100 nM final, mean ± SEM, number of trials in parentheses, read-out: TRPV1 IC50 Potency, Human Capsaicin CHO (hCAP-CHO)
Source text: The TRPV1/CHO cell line was generated as described below. […] The resulting PCR products were purified from agarose gels using Gel Band Purification Kit (GE Healthcare Bioscience) and were subcloned into pCR-Blunt vector (Invitrogen). The cloned cDNA was fully sequenced using a fluorescent dye-terminator reagent (BigDye Terminator ver3.1 Cycle Sequencing Kit, Applied Biosystems) and ABI Prism 3100 genetic analyzer (Applied Biosystems). The pCR-Blunt vector containing the hTRPV1 cDNA was subjected to restriction digestion with EcoRI. The restriction fragment was subcloned into expression vector pcDNA3.1 (-) (Invitrogen) and named pcDNA3.1 (-)-hVR1 plasmid. The sequence of the cDNA encoding TRPV1 is available at GenBank accession number AJ277028. […] The cells were transfected with the pcDNA3.1 (-)-hVR1 plasmid using FuGENE6 (Roche) according to the manufacturer's protocol. 24 hr after transfection, neomycin-resistant cells were selected using 1 mg/mL G418 (Nacalai Tesque). […] The cells expressing hTRPV1 were cultured in the growth medium supplemented with 1 mg/mL G418. […] Subsequently, the cells were loaded by incubation in 0.1 mL of wash buffer containing Fluo-4 at 3 μM final concentration. After 1 hour, the cells were washed twice with 0.2 mL wash buffer and resuspended in 0.1 mL wash buffer. The plates were then transferred to a Fluorescence Imaging Plate Reader (Molecular Devices). Fluorescence intensity was monitored for 15 seconds to establish a baseline. […] The final concentration of the compound was adjusted to range from 100 μM to 1.5625 μM. […] Data were collected over the entire time course and analyzed using Excel and the curve-fitting formula GraphPad Prism.

Row | IC50 [1] | IC50 [2] | Compound
1 | 0.185 µM | 0.131 µM | O=C(Nc1ccc(C(F)(F)F)cn1)N1CC=C(c2ncccc2Cl)CC1 [Compound 201]
2 | 0.59 µM | 0.182 µM | O=C(Nc1ccc(C(F)(F)F)c(F)c1)N1CC=C(c2ncccc2F)CC1 [Compound 202]
3 | 0.0512 µM | 0.0902 µM | O=C(Nc1ccc(C(F)(F)F)cc1)N1CCC(F)(c2ncccc2Cl)CC1 [Compound 203]
4 | 0.154 µM | 0.167 µM | O=C(Nc1ccc(C(F)(F)F)cn1)N1CCC(F)(c2ncccc2Cl)CC1 [Compound 204]
5 | 1.46 µM | 0.508 µM | O=C(Nc1nc2ccc(F)cc2s1)N1CCC(F)(c2ncccc2Cl)CC1 [Compound 206]
6 | 0.31 ± 0.0389 µM | 0.414 ± 0.0996 µM | COCc1cnc(C2=CCN(C(=O)Nc3ccc(S(=O)(=O)C(F)(F)F)cc3)CC2)c(Cl)c1 [Compound A3]
7 | 0.009 ± 0.0008 µM | 0.0498 ± 0.0121 µM | O=C(Nc1ccc(C(F)(F)F)c(F)c1)N1CCC(F)(c2ncc([C@@H](O)CO)cc2F)CC1 [Compound A6]
8 | 0.0405 µM | 0.0776 ± 0.012 µM | CC(C)c1cc(NC(=O)N2CC=C(c3ncc([C@H](O)CO)cc3Cl)CC2)ccc1OC(F)(F)F [Compound B2]
9 | 0.106 ± 0.0114 µM | 0.537 ± 0.062 µM | CC(C)(O)c1cnc(C2=CCN(C(=O)Nc3nc4ccc(Cl)cc4s3)CC2)c(Cl)c1 [Compound B3]
10 | 0.0058 ± 0.0013 µM | 0.0572 ± 0.0116 µM | O=C(Nc1ccc(S(=O)(=O)C(F)(F)F)cc1)N1CCC(F)(c2ncc([C@@H](O)CO)cc2Cl)CC1 [Compound B4]
11 | 0.015 ± 0.003 µM | 0.106 ± 0.021 µM | O=C(Nc1ccc(Br)c(C(F)(F)F)c1)N1CCC(F)(c2ncc([C@H](O)CO)cc2Cl)CC1 [Compound B5]
12 | 0.362 ± 0.0691 µM | 0.922 ± 0.205 µM | CC(O)c1cnc(C2=CCN(C(=O)Nc3ccc(C(F)(F)F)cn3)CC2)c(Cl)c1 (stereo not drawn) [Compound B6]
13 | 0.0418 ± 0.0038 µM | 0.0987 ± 0.0339 µM | O=C(Nc1ccc(S(=O)(=O)C(F)(F)F)cc1)N1CC=C(c2ncc(CO)cc2Cl)CC1 [Compound C2]
14 | 0.0186 ± 0.0028 µM | 0.0662 ± 0.0075 µM | O=C(Nc1nc2ccc(Cl)cc2s1)N1CC=C(c2ncc([C@H](O)CO)cc2F)CC1 [Compound C4]
15 | 0.0399 ± 0.0079 µM | 0.108 ± 0.0384 µM | COc1cc(NC(=O)N2CCC(F)(c3ncc([C@H](O)CO)cc3F)CC2)ccc1C(F)(F)F [Compound C5]
16 | 0.0009 µM | 0.0165 ± 0.0041 µM | CC(C)(C)c1ccc(NC(=O)N2CC=C(c3ncc([C@H](O)CO)cc3F)CC2)cc1 [Compound D1]
17 | 0.0548 µM | 0.0696 ± 0.0069 µM | O=C(Nc1ccc(C(F)(F)F)cn1)N1CCC(F)(c2ncc([C@@H](O)CO)cc2Cl)CC1 [Compound D4]
18 | 0.141 ± 0.0231 µM | 0.671 ± 0.133 µM | CC(C)(O)c1cnc(C2=CCN(C(=O)Nc3ccc(C(F)(F)F)c(F)c3)CC2)c(Cl)c1 [Compound E3]
19 | 0.0338 µM | 0.133 ± 0.0285 µM | O=C(Nc1ccc(Cl)c(C(F)(F)F)c1)N1CCC(F)(c2ncc([C@H](O)CO)cc2F)CC1 [Compound E5]
20 | 0.585 µM | 0.916 ± 0.306 µM | COCc1cnc(C2=CCN(C(=O)Nc3ccc(C(F)(F)F)cc3)CC2)c(Cl)c1 [Compound F3]
21 | 0.0325 ± 0.0024 µM | 0.0867 ± 0.0189 µM | O=C(Nc1ccc(C(F)(F)F)cc1)N1CC=C(c2ncc(C(F)(F)CO)cc2Cl)CC1 [Compound F4, 4-(3-chloro-5-(1,1-difluoro-2-hydroxyethyl)pyridin-2-yl)-N-(4-(trifluoromethyl)phenyl)-5,6-dihydropyridine-1(2H)-carboxamide]
22 | 0.0164 µM | 0.0313 ± 0.0088 µM | O=C(Nc1ccc(C(F)(F)F)cn1)N1CCC(F)(c2ncc([C@H](O)CO)cc2Cl)CC1 [Compound G1]
23 | 0.108 µM | 0.4 ± 0.0106 µM | O=C(Nc1ccc(Cl)c(C(F)(F)F)c1)N1CCC(F)(c2ncc([C@@H](O)CO)cc2F)CC1 [Compound G5]
24 | 0.516 ± 0.0992 µM | 0.52 ± 0.0886 µM | CN1CCCc2ccc(NC(=O)N3CCN(c4ncc([C@H](O)CO)cc4Cl)CC3)cc21 [Compound H5]
25 | 0.018 ± 0.001 µM | 0.122 ± 0.0071 µM | CC(C)Oc1ccc(NC(=O)N2CC=C(c3ncc(CO)cc3Cl)CC2)cc1C(F)(F)F [Compound I2]
26 | 0.118 ± 0.0275 µM | 0.709 ± 0.0941 µM | Cc1ccc(NC(=O)N2CC=C(c3ncc([C@H](O)CO)cc3Cl)CC2)cc1C(F)(F)F [Compound I5]
27 | 0.018 µM | 0.0345 ± 0.0175 µM | O=C(Nc1ccc(C(F)(F)F)c(F)c1)N1CC=C(c2ncc([C@H](O)CO)cc2F)CC1 [Compound J1]
28 | 0.0395 µM | 0.0351 ± 0.0088 µM | O=C(Nc1ccc(C(F)(F)F)cn1)N1CC=C(c2ncc([C@H](O)CO)cc2Cl)CC1 [Compound K1]
29 | 0.0472 ± 0.0067 µM | 0.141 ± 0.0419 µM | O=C(Nc1ccc(Cl)c(C(F)(F)F)c1)N1CC=C(c2ncc([C@H](O)CO)cc2F)CC1 [Compound K2]

Row | Compound | IC50 [1] | IC50 [2]
30 | O=C(Nc1ccc(C(F)(F)F)cc1)N1CCC(F)(c2ncc([C@@H](O)CO)cc2Cl)CC1 [Compound B1] | 0.0074 ± 0.0003 µM | 0.00781 ± 0.0012 µM
31 | O=C(Nc1ccc(C(F)(F)F)c(Cl)c1)N1CC=C(c2ncc([C@H](O)CO)cc2Cl)CC1 [Compound D2, (S)-3-Chloro-5-(1,2-dihydroxy-ethyl)-3′,6′-dihydro-2′H-[2,4′]bipyridinyl-1′-carboxylic acid (3-chloro-4-trifluoromethyl-phenyl)amide] | 0.0108 ± 0.0009 µM | 0.0853 ± 0.0207 µM
32 | O=C(Nc1nc2ccc(F)cc2s1)N1CCC(F)(c2ncc([C@@H](O)CO)cc2Cl)CC1 [Compound H4] | 0.097 ± 0.0099 µM | 0.176 ± 0.0284 µM
33 | CC(C)(C)c1ccc(NC(=O)N2CC=C(c3ncc([C@H](O)CO)cc3Cl)CC2)cc1 [Compound I1, (S)-3-Chloro-5-(1,2-dihydroxy-ethyl)-3′,6′-dihydro-2′H-[2,4′]bipyridinyl-1′-carboxylic acid (4-tert-butyl-phenyl)amide] | 0.0011 ± 0.0002 µM | 0.0338 ± 0.0091 µM
